{
  "source": "patent US9512086B2",
  "about": "“Compound for promoting apoptosis of cancer cells and a pharmaceutical composition containing the same and uses thereof” (National Chiao Tung University, priority 2014, dated 2016)",
  "key": {"A549 cell line": {"test_system": "A549 cell line", "experiment": "MTT cell viability, A549 cell line", "type": "cell-based, human"}, "[1]": {"test_system": "CL3 human lung cancer cell line", "experiment": "MTT cell viability, CL3 cells", "type": "cell-based", "settings": "24 hours", "description": "After drug treatment, the cells were washed with PBS and replaced with fresh complete RPMI-1640 medium for 2 days. Thereafter, the medium was replaced and the cells were incubated with 0.5 mg/mL of MTT reagent (Sigma Chemical Co., St. Louis, Mo.) in complete RPMI-1640 medium for 4 hours. The intensity of formazan was measured at 565 nm using a plate reader (VERSAmax, Molecular Dynamics, Sunnyvale, Calif.). The relative percentage of cell viability was calculated by dividing the absorbance of treated cells by that of the control in each experiment."}, "EGFR protein kinase": {"target": "T1, EGFR protein kinase (Homo sapiens, UniProt P00533)", "T1 construct": "purchased Promega", "T1 sequence (P00533 25-1210)": "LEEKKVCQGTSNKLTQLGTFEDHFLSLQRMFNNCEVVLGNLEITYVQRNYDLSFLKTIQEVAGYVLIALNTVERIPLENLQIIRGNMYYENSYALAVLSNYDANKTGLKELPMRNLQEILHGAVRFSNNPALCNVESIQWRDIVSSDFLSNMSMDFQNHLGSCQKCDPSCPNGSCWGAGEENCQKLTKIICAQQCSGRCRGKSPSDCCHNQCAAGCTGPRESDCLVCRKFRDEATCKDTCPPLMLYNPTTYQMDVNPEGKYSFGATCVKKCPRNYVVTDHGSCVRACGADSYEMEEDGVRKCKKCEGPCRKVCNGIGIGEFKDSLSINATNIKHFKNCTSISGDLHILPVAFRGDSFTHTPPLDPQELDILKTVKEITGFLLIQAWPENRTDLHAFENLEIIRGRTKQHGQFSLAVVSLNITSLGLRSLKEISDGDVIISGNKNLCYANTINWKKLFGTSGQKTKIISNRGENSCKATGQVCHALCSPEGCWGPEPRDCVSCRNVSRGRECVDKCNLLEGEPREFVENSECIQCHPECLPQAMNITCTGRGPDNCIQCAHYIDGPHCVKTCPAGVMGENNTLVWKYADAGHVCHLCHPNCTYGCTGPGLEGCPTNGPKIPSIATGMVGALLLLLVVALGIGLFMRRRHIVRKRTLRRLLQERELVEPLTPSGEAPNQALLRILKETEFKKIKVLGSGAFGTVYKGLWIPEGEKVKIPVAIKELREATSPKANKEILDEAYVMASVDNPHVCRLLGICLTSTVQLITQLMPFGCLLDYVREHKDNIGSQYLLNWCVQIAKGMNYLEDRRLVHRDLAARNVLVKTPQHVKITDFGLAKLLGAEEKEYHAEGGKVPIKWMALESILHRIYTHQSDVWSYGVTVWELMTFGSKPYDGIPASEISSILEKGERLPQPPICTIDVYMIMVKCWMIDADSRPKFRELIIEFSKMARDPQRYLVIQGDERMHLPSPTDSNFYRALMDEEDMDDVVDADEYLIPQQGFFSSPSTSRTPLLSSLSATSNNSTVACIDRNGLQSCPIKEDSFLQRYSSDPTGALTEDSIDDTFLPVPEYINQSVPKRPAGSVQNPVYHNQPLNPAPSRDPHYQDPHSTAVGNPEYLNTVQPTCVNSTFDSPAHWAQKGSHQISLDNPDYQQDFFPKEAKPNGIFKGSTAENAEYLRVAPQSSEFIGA", "experiment": "ADP-Glo Kinase Assay, EGFR protein kinase activity", "type": "biochemical"}, "[2]": {"target": "T2, EGFR (epidermal growth factor receptor) (Homo sapiens, UniProt P00533)", "T2 construct": "purchased Merck Millipore (KinaseProfiler service)", "T2 sequence (P00533 25-1210)": "as above", "experiment": "KinaseProfiler assay, EGFR", "type": "biochemical", "settings": "read-out: KAR value (kinase activity remaining)"}, "[3]": {"target": "T3, CHEK1 (checkpoint kinase-1) (Homo sapiens, UniProt O14757)", "T3 construct": "purchased Merck Millipore (KinaseProfiler service)", "T3 sequence (O14757 whole entry)": "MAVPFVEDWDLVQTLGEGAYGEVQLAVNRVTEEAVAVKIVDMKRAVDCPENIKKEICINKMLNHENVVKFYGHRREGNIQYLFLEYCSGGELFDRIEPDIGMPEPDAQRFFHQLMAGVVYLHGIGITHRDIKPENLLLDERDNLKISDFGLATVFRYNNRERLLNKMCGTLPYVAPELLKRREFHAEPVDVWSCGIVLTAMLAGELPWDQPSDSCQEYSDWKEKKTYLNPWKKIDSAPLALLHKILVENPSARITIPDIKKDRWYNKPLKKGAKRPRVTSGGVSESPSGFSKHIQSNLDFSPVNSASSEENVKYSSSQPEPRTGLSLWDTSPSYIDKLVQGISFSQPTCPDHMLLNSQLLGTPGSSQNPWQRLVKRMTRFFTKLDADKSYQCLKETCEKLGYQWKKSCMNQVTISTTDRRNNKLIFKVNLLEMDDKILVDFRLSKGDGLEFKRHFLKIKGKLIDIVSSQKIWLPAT", "experiment": "KinaseProfiler assay, CHEK1", "type": "biochemical", "settings": "read-out: KAR value (kinase activity remaining)", "source_text": "The kinase activity remaining (KAR) value is inversely related to kinase activity."}, "MARK2 (PAR-1Ba)": {"target": "T4, MARK2 (PAR-1Ba) (Homo sapiens, UniProt Q7KZI7)", "T4 construct": "purchased Merck Millipore (KinaseProfiler service)", "T4 sequence (Q7KZI7 1-725 isoform Q7KZI7-4)": "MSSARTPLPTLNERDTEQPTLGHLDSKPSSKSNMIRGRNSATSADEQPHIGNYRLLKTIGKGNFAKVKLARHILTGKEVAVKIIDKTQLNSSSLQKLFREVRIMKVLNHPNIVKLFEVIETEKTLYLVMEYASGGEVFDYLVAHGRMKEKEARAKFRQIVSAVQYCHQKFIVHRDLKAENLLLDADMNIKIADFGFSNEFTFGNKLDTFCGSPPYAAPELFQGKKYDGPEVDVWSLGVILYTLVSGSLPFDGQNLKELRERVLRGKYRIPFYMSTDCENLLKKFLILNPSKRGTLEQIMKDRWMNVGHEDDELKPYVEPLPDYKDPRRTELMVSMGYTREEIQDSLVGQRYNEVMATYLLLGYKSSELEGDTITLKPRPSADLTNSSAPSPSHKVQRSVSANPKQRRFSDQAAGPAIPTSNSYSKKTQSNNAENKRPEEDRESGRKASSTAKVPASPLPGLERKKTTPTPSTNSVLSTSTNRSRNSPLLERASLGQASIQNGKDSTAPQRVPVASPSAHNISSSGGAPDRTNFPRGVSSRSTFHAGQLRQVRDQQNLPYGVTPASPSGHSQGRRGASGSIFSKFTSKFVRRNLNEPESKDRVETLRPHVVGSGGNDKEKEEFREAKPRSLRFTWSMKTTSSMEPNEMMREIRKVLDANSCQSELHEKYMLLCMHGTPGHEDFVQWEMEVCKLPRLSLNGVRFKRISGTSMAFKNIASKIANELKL", "experiment": "KinaseProfiler assay, MARK2", "type": "biochemical", "settings": "MARK2; 10 μM; read-out: KAR value (kinase activity remaining)", "description": "(§1) The kinase activity remaining (KAR) value is […] related to kinase activity. […]"}, "[4]": {"target": "T5, CSNK2A1 (casein kinase-2) (Homo sapiens, UniProt P68400)", "T5 construct": "purchased Merck Millipore (KinaseProfiler service)", "T5 sequence (P68400 whole entry)": "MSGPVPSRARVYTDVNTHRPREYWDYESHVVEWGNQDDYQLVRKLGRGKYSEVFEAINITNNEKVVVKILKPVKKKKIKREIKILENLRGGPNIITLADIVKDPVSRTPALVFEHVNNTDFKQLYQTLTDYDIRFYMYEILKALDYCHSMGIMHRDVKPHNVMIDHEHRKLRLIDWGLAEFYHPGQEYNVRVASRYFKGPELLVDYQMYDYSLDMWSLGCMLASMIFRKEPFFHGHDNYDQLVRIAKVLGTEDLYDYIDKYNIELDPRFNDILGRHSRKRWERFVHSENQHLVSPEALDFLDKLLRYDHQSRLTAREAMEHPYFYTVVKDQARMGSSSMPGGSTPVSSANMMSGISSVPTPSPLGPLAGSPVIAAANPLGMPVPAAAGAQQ", "experiment": "KinaseProfiler assay, CSNK2A1", "type": "biochemical", "settings": "CSNK2A1; 10 μM; read-out: KAR value (kinase activity remaining)", "description": "as §1"}, "[5]": {"target": "T6, STK10 (lymphocyte-oriented kinase) (Homo sapiens, UniProt O94804)", "T6 construct": "purchased Merck Millipore (KinaseProfiler service)", "T6 sequence (O94804 whole entry)": "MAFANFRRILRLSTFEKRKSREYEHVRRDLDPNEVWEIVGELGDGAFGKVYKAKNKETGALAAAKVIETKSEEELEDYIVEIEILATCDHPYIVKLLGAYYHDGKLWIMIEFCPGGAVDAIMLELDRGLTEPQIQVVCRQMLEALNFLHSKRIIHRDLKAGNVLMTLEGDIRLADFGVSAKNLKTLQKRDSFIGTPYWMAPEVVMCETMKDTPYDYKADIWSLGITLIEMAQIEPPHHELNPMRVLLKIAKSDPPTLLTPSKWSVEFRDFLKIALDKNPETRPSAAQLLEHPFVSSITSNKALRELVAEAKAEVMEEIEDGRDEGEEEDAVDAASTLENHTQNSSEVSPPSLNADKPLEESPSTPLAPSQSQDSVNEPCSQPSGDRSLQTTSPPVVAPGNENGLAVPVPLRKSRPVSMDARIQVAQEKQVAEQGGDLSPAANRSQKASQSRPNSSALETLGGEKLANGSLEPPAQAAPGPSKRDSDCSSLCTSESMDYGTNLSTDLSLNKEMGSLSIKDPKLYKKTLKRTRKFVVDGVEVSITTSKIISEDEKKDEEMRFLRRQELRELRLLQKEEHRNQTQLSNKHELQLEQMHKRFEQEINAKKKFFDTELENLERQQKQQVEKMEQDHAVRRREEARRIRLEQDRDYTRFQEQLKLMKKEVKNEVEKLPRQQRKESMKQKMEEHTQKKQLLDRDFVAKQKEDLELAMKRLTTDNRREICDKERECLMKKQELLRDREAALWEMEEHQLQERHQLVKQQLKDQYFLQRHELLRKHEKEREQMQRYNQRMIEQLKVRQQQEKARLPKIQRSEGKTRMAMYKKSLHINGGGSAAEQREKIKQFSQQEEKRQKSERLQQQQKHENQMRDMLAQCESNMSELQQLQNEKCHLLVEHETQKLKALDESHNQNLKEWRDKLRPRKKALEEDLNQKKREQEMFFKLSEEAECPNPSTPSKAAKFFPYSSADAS", "experiment": "KinaseProfiler assay, STK10", "type": "biochemical", "settings": "read-out: KAR value (kinase activity remaining)", "description": "as §1"}, "[6]": {"target": "T7, FGFR1 (fibroblast growth factor receptor-1) (Homo sapiens, UniProt P11362)", "T7 construct": "purchased Merck Millipore (KinaseProfiler service)", "experiment": "KinaseProfiler assay, FGFR1", "type": "biochemical", "settings": "read-out: KAR value (kinase activity remaining)", "description": "as §1"}, "LCK (lymphocyte kinase)": {"target": "T8, LCK (lymphocyte kinase) (Homo sapiens, UniProt P06239)", "T8 construct": "purchased Merck Millipore (KinaseProfiler service)", "experiment": "KinaseProfiler assay, LCK", "type": "biochemical", "settings": "read-out: KAR value (kinase activity remaining)"}, "[7]": {"target": "T9, SYK (splenic tyrosine kinase) (Homo sapiens, UniProt P43405)", "T9 construct": "purchased Merck Millipore (KinaseProfiler service)", "experiment": "KinaseProfiler assay, SYK", "type": "biochemical", "settings": "SYK; 10 μM; read-out: KAR value (kinase activity remaining)", "description": "as §1"}, "[8]": {"target": "T10, LIMK1 (LIM motif-containing protein kinase-1) (Homo sapiens, UniProt P53667)", "T10 construct": "purchased Merck Millipore (KinaseProfiler service)", "experiment": "KinaseProfiler assay, LIMK1", "type": "biochemical", "settings": "LIMK1; 10 μM; read-out: KAR value (kinase activity remaining)", "description": "as §1"}, "A549 cells [9]": {"test_system": "A549 cells", "experiment": "Cell growth, cell number by hemocytometer", "type": "cell-based, human", "settings": "30 μM for 24 hours, then cultured 2-6 days", "procedure": "The cells were washed with PBS after the treatment. […] The cell number was calculated with hemocytometer."}, "A549 cells [10]": {"test_system": "A549 cells", "experiment": "Cell cycle analysis, PI staining and flow cytometry", "type": "cell-based, human", "settings": "24 hours", "procedure": "After the treatment, the cells were collected and fixed with ice-cold 70% ethanol overnight at −20° C. After centrifugation at 1500 rpm for 5 minutes, the pellets were treated with 4 μg/ml PI solution containing 1% Triton X-100 and 50 μg/ml RNase at 37 °C for 30 minutes in the dark. To avoid cell aggregation, the cell solutions were filtrated through nylon membrane (Becton-Dickinson, San Jose, Calif.). Subsequently, the samples were analyzed by flow cytometry. For each measurement, 10,000 cells were analyzed for DNA content. The percentage of cell cycle phases was quantified by ModFit LT software (Ver. 2.0, Becton-Dickinson)."}, "survivin [11]": {"test_system": "survivin", "experiment": "RT-PCR of survivin gene expression in A549 cells", "type": "cell-based, human", "settings": "0 to 40 μM, 24 hours", "description": "After the treatment, total cellular RNA was purified by ZR RNA MiniPrep™ (Zymo Research, Irvine, Calif.) according to the manufacturer's protocol. RNA concentrations were determined by spectrophotometry. cDNAs were synthesized by SuperScript™ III reverse transcriptase with oligo (dT)12-18 primer (Invitrogen). Each reverse transcript was amplified with GAPDH as an internal control. Reverse transcription polymerase chain reaction (RT-PCR) was performed by a DNA thermal cycler (Mastercycler gradient, Hamburg, Germany). […] The conditions of RT-PCR are stated as followed: the initial denaturation was performed at 94° C. for 2 minutes, followed by 30 cycles at 94° C. for 30 seconds, 56° C. for 30 seconds, and 72° C. for 40 seconds; and 72° C. for 5 minutes. The PCR products were visualized on 1.2% agarose gels with ethidium bromide staining under UV transillumination, and photograph was taken by a camera DH27-S3 (Medclub, Taoyuan, Taiwan)."}, "survivin [12]": {"test_system": "survivin", "experiment": "Western blot of survivin protein in xenograft tumors", "type": "in vivo, nude mice", "settings": "30 mg/kg three times every 4 days", "description": "The present invention determines the effect of Analogue-18 on tumor growth of the xenograft human lung tumors in nude mice. BALB/cAnN.Cg-FoxnInu/CrlNarl mice (3-week-old male) were obtained from BioLASCO (BioLASCO Co., Ltd., Taipei, Taiwan). After 2 weeks for environmental adaption, the mice were used for human lung cancer cell inoculation. Solid A549 flank tumors were established by subcutaneous injection of 2×10^6 cells. After 10 days, the mice bearing A549 human lung xenograft tumors were injected with 100 μl corn oil (control) or 30 mg/kg Analogue-18 for three times every 4 days. The tumor size of the mice was measured by a digital caliper every 4 days and calculated by the following formula: (length)×(width)^2×0.5. The xenograft tumors were harvested from scarified mice. The tumors were homogenized and the total lysate were subjected to Western blot analysis according to Example 4."}, "PARP": {"test_system": "PARP", "experiment": "Western blot of cleaved PARP in A549 cells", "settings": "10-40 μM, 24 hours", "procedure": "(§2) The protease inhibitors including 1 μg/ml aprotinin, 0.5 μg/ml leupeptin, and 100 μg/ml 4-(2-aminoethyl)benzenesulfonyl fluoride were added to the cell suspensions. The lysates were vibrated for 30 minutes at 4° C. and centrifuged at 10,000 rpm for 10 minutes. The protein concentrations were determined by the BCA protein assay kit (Pierce, Rockford, Ill.). […] The membranes were blocked overnight at 4° C. using blocking buffer (5% non-fat dried milk in solution containing 50 mM Tris/HCl (pH 8.0), 2 mM CaCl2, 80 mM NaCl, 0.05% Tween 20 and 0.02% sodium azide). The membranes were sequentially hybridized with primary antibody and followed with a horseradish peroxidase-conjugated secondary antibody. The protein bands were visualized on the X-ray film using the enhanced chemiluminescence detection system (PerkinElmer Life and Analytical Sciences, Boston, Mass.). […] To verify equal protein loading and transfer, actin was used as the protein loading control. The gel digitizing software, Un-Scan-It gel (Ver. 5.1, Silk Scientific, Inc., Orem, Utah), was used to analyze the intensity of protein bands on X-ray film.\n(§3) A549 cells were plated at a density of 1×10^6 cells per 60-mm Petri dish in complete medium for 16 to 20 hours. […] To verify equal protein loading and transfer, actin was used as the protein loading control."}, "survivin [13]": {"test_system": "survivin", "experiment": "Western blot of survivin protein expression in A549 cells", "settings": "0 to 40 μM, 24 hours", "procedure": "as §2, §3"}},
  "note": "“Also recorded” adds a separate entry of the source.",
  "data": [
    {"smiles": "CCCCCCCCCCCCOC(=O)CCC(=O)N1CCN(CCCOc2cc3c(Nc4ccc(F)c(Cl)c4)ncnc3cc2OC)CC1", "note": "[Analogue-18, dodecyl 4-(4-(3-(4-(3-chloro-4-fluorophenylamino)-7-methoxyquinazolin-6-yloxy)propyl)piperazin-1-yl)-4-oxobutanoate]", "values": [
      {"measurement": "toxicity effect on A549 cell line", "setting": "A549 cell line; 24 hours, in comparison with Iressa", "result": "best toxicity effect; also recorded: more effective on reducing cell viability than Iressa"},
      {"measurement": "toxicity effects", "setting": "A549 cell line; A549, 40 μM, 24 hours", "result": "more than 99%"},
      {"measurement": "increased toxicity effect", "setting": "A549 cell line; A549 cell line, 40 μM", "result": "15-20 times"},
      {"measurement": "viability at 10 µM", "setting": "A549 cell line; Homo sapiens, A549 cell line, 10 μM, 24 hours, MTT", "result": 95.5, "unit": "%"},
      {"measurement": "viability at 20 µM", "setting": "A549 cell line; Homo sapiens, A549 cell line, 20 μM, 24 hours, MTT", "result": 86.8, "unit": "%"},
      {"measurement": "viability at 40 µM", "setting": "A549 cell line; Homo sapiens, A549 cell line, 40 μM, 24 hours, MTT", "result": 5.7, "unit": "%"},
      {"measurement": "viability at 60 µM", "setting": "A549 cell line; Homo sapiens, A549 cell line, 60 μM, 24 hours, MTT", "result": 2, "unit": "%"},
      {"measurement": "viability at 80 µM", "setting": "A549 cell line; Homo sapiens, A549 cell line, 80 μM, 24 hours, MTT", "result": 2.3, "unit": "%"},
      {"measurement": "reducing cell viability", "setting": "[1]; CL3, 0 to 40 μM, compared with Iressa", "result": "more effective on reducing cell viability than Iressa"},
      {"measurement": "toxicity effects", "setting": "[1]; CL3, 40 μM", "result": "more than 99%"},
      {"measurement": "IC50", "setting": "EGFR protein kinase; by the IVIS system", "result": "~130", "unit": "nM"},
      {"measurement": "IC50", "setting": "EGFR protein kinase; by the Luminometer", "result": "~126", "unit": "nM"},
      {"measurement": "remaining activity at 10 µM", "setting": "[2]", "result": -2, "unit": "%"},
      {"measurement": "remaining activity at 10 µM", "setting": "[3]", "result": 69, "unit": "%"},
      {"measurement": "remaining activity at 10 µM", "setting": "MARK2 (PAR-1Ba)", "result": 84, "unit": "%"},
      {"measurement": "remaining activity at 10 µM", "setting": "[4]", "result": 76, "unit": "%"},
      {"measurement": "remaining activity at 10 µM", "setting": "[5]", "result": 43, "unit": "%"},
      {"measurement": "remaining activity at 10 µM", "setting": "[6]", "result": 82, "unit": "%"},
      {"measurement": "remaining activity at 10 µM", "setting": "LCK (lymphocyte kinase)", "result": 89, "unit": "%"},
      {"measurement": "remaining activity at 10 µM", "setting": "[7]", "result": 87, "unit": "%"},
      {"measurement": "remaining activity at 10 µM", "setting": "[8]", "result": 82, "unit": "%"},
      {"measurement": "cell growth of A549 cells", "setting": "A549 cells [9]", "result": "inhibit cell growth of A549 cells, and Analogue-18 is more effective"},
      {"measurement": "fractions of G1, S and G2/M phases", "setting": "A549 cells [10]; 0 to 40 μM", "result": "does not significantly alter"},
      {"measurement": "average percentage of sub-G1 fractions", "setting": "A549 cells [10]; 40 μM", "result": 66.7, "unit": "%"},
      {"measurement": "survivin gene expression", "setting": "survivin [11]", "result": "significantly inhibited in a concentration-dependent manner"},
      {"measurement": "survivin protein levels of xenograft tumors", "setting": "survivin [12]", "result": "significantly reduced about half amount"},
      {"measurement": "cleaved form of PARP", "setting": "PARP", "result": "induced the cleaved form of PARP"},
      {"measurement": "survivin protein expression", "setting": "survivin [13]", "result": "significantly inhibited surviving protein expression"}
    ]}
  ]
}
